Experimental data published in patent publication US20230192617A1, “AZABICYCLIC(THIO)AMIDES AS FUNGICIDAL COMPOUNDS” (Bayer CropScience Aktiengesellschaft, priority 2020, published 2023).

How the values were obtained:
[1] = Measurement of Log P values by HPLC on reversed phase columns (EEC directive 79/831 Annex V.A8); assay type: physicochemical; conditions: reversed phase HPLC column
In short: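 Reversed-phase HPLC with UV detection per EEC 79/831 Annex V.A8, linear 10–95% acetonitrile gradient. Aqueous eluent: 0.1% formic acid (acidic), 0.001 M ammonium acetate (neutral), or 0.1% phosphoric acid (acidic); multiple values in one method joined by "+".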

[2] = system: Alternaria brassicae; test: In vivo preventive test on Alternaria brassicae (leaf spot on radish or cabbage); conditions: 500 ppm of active ingredient, preventive spray on radish or cabbage, evaluated 3 to 4 days after inoculation, read-out: efficacy
In short: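 Young radish or cabbage plants were sprayed with compound dissolved in DMSO/acetone/Tween 80 and diluted in water; controls received solvent only. Inoculation by spraying A. brassicae spore suspension 24 h later, then 3–4 days at 20 °C and 100% relative humidity.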

[3] = system: Botrytis cinerea; test: In vivo preventive test on Botrytis cinerea (grey mould); conditions: 500 ppm of active ingredient, preventive spray on gherkin or cabbage, evaluated 4 to 5 days after inoculation, read-out: efficacy
In short: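 Young gherkin or cabbage plants were sprayed with compound in DMSO/acetone/Tween 80 diluted in water, then inoculated 24 hours later with a B. cinerea spore suspension. Incubation lasted 4 to 5 days: gherkin at 17° C., 90% relative humidity; cabbage at 20° C., 100% relative humidity.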

[4] = system: Sphaerotheca fuliginea; test: In vivo preventive test on Sphaerotheca fuliginea (powdery mildew on cucurbits); conditions: Podosphaera fuliginea, 192 h; 500 ppm of active ingredient; preventive spray on gherkin; evaluated 8 days after inoculation; read-out: efficacy
Description: B-4. in vivo preventive test on Sphaerotheca fuliginea (powdery mildew on cucurbits) [table] The active ingredients were made soluble and homogenized in a mixture of Dimethyl sulfoxide/Acetone/Tween® 80 and then diluted in water to the desired concentration. The young plants of gherkin were treated by spraying the active ingredient prepared as described above. Control plants were treated only with an aqueous solution of Acetone/Dimethyl sulfoxide/Tween® 80. After 24 hours, the plants were contaminated by spraying the leaves with an aqueous suspension of Sphaerotheca fuliginea spores. The contaminated gherkin plants were incubated for 8 days at 20° C. and at 70-80% relative humidity.

[5] = system: Alternaria alternata; test: Alternaria alternata in vitro cell test; assay type: cell-based; conditions: 120 h, 20 ppm of active ingredient, liquid culture, 5 days incubation, spectrometric measurement of mycelium growth, read-out: efficacy (inhibition of fungal growth)
In short: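 Liquid culture assay in which A. alternata spores in medium received DMSO-solubilized compound (final DMSO ≤1%). After 5 days, mycelium growth was measured spectrometrically. Inhibition was calculated against fungicide-free control wells.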

[6] = system: Colletotrichum lindemuthianum; test: B-8. Colletotrichum lindemuthianum in vitro cell test; assay type: cell-based; conditions: 144 h, 20 ppm of active ingredient, 6 days incubation, liquid culture, absorbance, read-out: efficacy (inhibition of fungal growth)
In short: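 Spore suspension of C. lindemuthianum in liquid medium exposed to DMSO-solubilized compounds (final DMSO ≤1%) for 6 days. Mycelial growth read by absorbance, with inhibition calculated relative to compound-free control wells.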

[7] = system: Botrytis cinerea; test: B-11. Botrytis cinerea in vitro cell test; assay type: cell-based; conditions: 144 h, 20 ppm of active ingredient, 6 days incubation, liquid culture, absorbance, read-out: efficacy (inhibition of fungal growth)
In short: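 B. cinerea spores were grown in liquid culture with compound (DMSO ≤1% final). Mycelium growth was measured spectrometrically after 6 days, with inhibition taken as absorbance relative to untreated control wells.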

[8] = method [a]: LC-UV, acidic range, 0.1% formic acid in water and acetonitrile as eluent
[9] = method [b]: LC-UV, neutral range, 0.001 molar ammonium acetate solution in water and acetonitrile as eluent

chromatographic logP [1, 8]	chromatographic logP [1, 9]	Compound	pest or weed control at 500 ppm [2] [%]	pest or weed control at 500 ppm [3] [%]	pest or weed control at 500 ppm [4] [%]	inhibition at 20 ppm [5] [%]	inhibition at 20 ppm [6] [%]	inhibition at 20 ppm [7] [%]
4.46		Cc1ccc(CCNC(=O)c2c(Oc3cccc(C(F)(F)F)c3)nnc3ccc(F)cc23)c(C)c1 [I-006]	90 to 100	90 to 100	90 to 100	90 to 100	90 to 100	90 to 100
4.08		O=C(NCC(F)(F)c1ccc(Br)cc1Cl)c1c(Oc2cncc(C(F)(F)F)c2)nnc2ccccc12 [I-027]	90 to 100	90 to 100	90 to 100	90 to 100	90 to 100	
4.29		COc1ccc2nnc(Oc3cccc(C(F)(F)F)c3)c(C(=O)NCCc3ccc(C)cc3C)c2c1 [I-010]	80 to 89	90 to 100	90 to 100	90 to 100		
4.47		O=C(NC[C@@H](F)c1ccc(Cl)c(Cl)c1)c1c(Oc2cccc(C(F)(F)F)c2)cnc2ccccc12 (racemic) [I-059]		90 to 100	70 to 79	90 to 100		90 to 100
4.05		COc1cc([C@@H](F)CNC(=O)c2c(Oc3cccc(C(F)(F)F)c3)cnc3ccccc23)ccc1Cl (racemic) [I-058]	90 to 100	90 to 100	90 to 100	90 to 100	90 to 100	90 to 100
4.13		O=C(NCC(F)(F)c1ccc(Cl)cc1)c1c(Oc2cccc(C(F)(F)F)c2)nnc2ccccc12 [I-023]	90 to 100	90 to 100	90 to 100	90 to 100	90 to 100	
4.14		O=C(NCC(F)(F)c1ccc(Br)cc1Cl)c1c(Oc2cccc(C(F)F)c2)nnc2ccccc12 [I-035]	90 to 100	90 to 100	70 to 79	90 to 100	90 to 100	
4.47		Cc1ccc(CCNC(=O)c2c(Oc3cccc(C(F)(F)F)c3)nnc3ccc(C)cc23)c(C)c1 [I-003]	90 to 100	90 to 100	90 to 100	90 to 100	90 to 100	
3.58		Cc1ccc(C(F)(F)CNC(=O)c2c(Oc3cccc(C(F)(F)F)c3)nnc3c2CCOCC3)c(C)c1 [I-114, N-[2-(2,4-dimethylphenyl)-2,2-difluoro-ethyl]-3-[3-(trifluoro-methyl)phenoxy]-5,6,8,9-tetrahydrooxepino[4,5-c]pyridazine-4-carboxamide]	70 to 79	90 to 100	90 to 100	90 to 100	90 to 100	
4.03	3.99	O=C(N[C@H]1CCCc2cc(Br)ccc21)c1c(Oc2cccc(C(F)(F)F)c2)cnc2c1OCCO2 (racemic) [I-111]	90 to 100	90 to 100	90 to 100		90 to 100	
4.59		Cc1cc(Br)ccc1[C@@H](F)CNC(=O)c1c(Oc2cccc(C(F)(F)F)c2)cnc2ccccc12 (racemic) [I-063]	90 to 100	90 to 100	90 to 100	90 to 100	90 to 100	90 to 100
3.87		Cc1ccc(C(F)(F)CNC(=O)c2c(Oc3cncc(C(F)(F)F)c3)nnc3ccccc23)c(C)c1 [I-025]	90 to 100	90 to 100	90 to 100	90 to 100	90 to 100	
4.08		Cc1cc(C(F)F)ccc1[C@@H](F)CNC(=O)c1c(Oc2cccc(C(F)(F)F)c2)cnc2ccccc12 (racemic) [I-057]	90 to 100	90 to 100	90 to 100	90 to 100	90 to 100	90 to 100
		O=C(NCC(F)(F)c1ccc(Cl)cc1)c1c(Oc2cccc(Cl)c2)nnc2ccccc12 [I-012]	90 to 100	90 to 100	90 to 100	90 to 100	90 to 100	
4.51		Cc1ccc(CCNC(=O)c2c(Oc3cccc(C(F)(F)F)c3)nnc3cc(C)ccc23)c(C)c1 [I-004, N-[2-(2,4-dimethylphenyl)ethyl]-7-methyl-3-[3-(trifluoro-methyl)phenoxy]cinnoline-4-carboxamide]	90 to 100	90 to 100	90 to 100	90 to 100	90 to 100	
4.7		O=C(NC[C@H](F)c1ccc(C2CC2)cc1Cl)c1c(Oc2cccc(C(F)(F)F)c2)cnc2ccccc12 (racemic) [I-062]	90 to 100	90 to 100	90 to 100	90 to 100	90 to 100	90 to 100
3.61		O=C(NCC(F)(F)c1ccc(Cl)cc1)c1c(Oc2cncc(C(F)(F)F)c2)nnc2ccccc12 [I-026]	90 to 100	90 to 100	90 to 100	90 to 100	90 to 100	
4.27	4.22	Cc1ccc(C(F)(F)CNC(=O)c2c(Oc3cccc(C(F)(F)F)c3)nnc3ccccc23)c(C)c1 [I-008]	80 to 89	90 to 100	90 to 100	90 to 100	80 to 89	
3.79		Cc1cccc(Oc2nnc3ccccc3c2C(=O)N[C@@H](C)c2cccc(C(F)(F)F)c2)c1 (racemic) [I-020]	90 to 100	90 to 100	70 to 79	80 to 89	70 to 79	
4.56		O=C(NC[C@H](F)c1ccc(Br)cc1Cl)c1c(Oc2cccc(C(F)(F)F)c2)cnc2ccccc12 (racemic) [I-041]	90 to 100	90 to 100	90 to 100	90 to 100	90 to 100	
4.58		O=C(NCC(F)(F)c1ccc(Br)cc1Cl)c1c(Oc2cccc(C(F)(F)F)c2)nnc2ccccc12 [I-021]	90 to 100	90 to 100	90 to 100	90 to 100	90 to 100	
4.46		O=C(NC[C@H](F)c1ccc(Cl)cc1Cl)c1c(Oc2cccc(C(F)(F)F)c2)cnc2ccccc12 (racemic) [I-043]	90 to 100	90 to 100	90 to 100	90 to 100	90 to 100	
